According to PMC6017736, “Indole-3-Carbonitriles as DYRK1A Inhibitors by Fragment-Based Drug Design” (Molecules : A Journal of Synthetic Chemistry and Natural …, 2018):

Tests used:
GSK-3 = experiment: Protein kinase assay ([γ-33P]-ATP, GS-1 substrate), GSK-3; settings: for Inhibition at 10 µM GSK3 (class symbol) / Residual Activity at 10 µM GSK3: 10 µM compound; for Residual Activity at 10 µM GSK3: compared to controls; for IC50: read-out: IC50 GSK3, 15 µM ATP
DYRK1A [1] = biological target: T1, DYRK1A (Homo sapiens, UniProt Q13627); experiment: Protein kinase assay ([γ-33P]-ATP, RS peptide substrate), DYRK1A; format: biochemical; settings: for IC50: 15 µM ATP, read-out: IC50 DYRK 1A; for remaining activity at 10 µM: 10 µM compound, compared to controls, read-out: Residual Activity at 10 µM DYRK 1A
DYRK1A [2] = biological target: T1, DYRK1A; experiment: Ligand-lipophilicity efficiency (pIC50 minus calculated logP); settings: Table S2
Protocol: All new compounds were evaluated based on their physicochemical properties regarding Lipinski’s rule of five and the ligand-lipophilicity efficiency (LLE). Both concepts are used to assess the druglikeness of drug development candidates. […] LLE is calculated from pIC50 minus calculated logP [46].

CLK4 = CLK4 (Mus musculus, UniProt O35493); experiment: Protein kinase assay ([γ-33P]-ATP, RS peptide substrate), CLK4; format: biochemical; settings: for IC50: 15 µM ATP; for remaining activity at 10 µM: 10 µM compound, compared to controls, read-out: Residual Activity at 10 µM CLK4
CLK4, sequence (O35493 whole entry, the tested form may be a part): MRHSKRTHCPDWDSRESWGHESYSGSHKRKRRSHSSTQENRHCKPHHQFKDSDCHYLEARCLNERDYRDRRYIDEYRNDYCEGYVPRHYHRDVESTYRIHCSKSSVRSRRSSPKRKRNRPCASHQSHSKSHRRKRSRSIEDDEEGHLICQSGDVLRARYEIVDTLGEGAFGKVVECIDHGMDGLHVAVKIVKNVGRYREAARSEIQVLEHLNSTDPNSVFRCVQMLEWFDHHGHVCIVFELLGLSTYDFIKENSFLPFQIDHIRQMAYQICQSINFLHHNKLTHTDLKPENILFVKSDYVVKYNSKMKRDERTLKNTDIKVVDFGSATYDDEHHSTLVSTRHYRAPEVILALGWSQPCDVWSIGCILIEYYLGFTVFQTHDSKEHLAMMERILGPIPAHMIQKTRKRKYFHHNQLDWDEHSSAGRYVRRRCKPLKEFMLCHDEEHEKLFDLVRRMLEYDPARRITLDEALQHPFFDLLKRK
Protocol: (§1) DYRK1A, 1B, 2, 3 (human, recombinant, expressed in E. coli as GST fusion proteins) and CLK1, 2, 3, and 4 (mouse, recombinant, expressed in E. coli as GST fusion proteins) were assayed as described for GSK-3 in Buffer A (supplemented extemporaneously with 0.15 mg BSA/mL + 1 mM DTT) with 1 µg of RS peptide ([…]) as a substrate.

DYRK1B = DYRK1B (Homo sapiens, UniProt Q9Y463); experiment: Protein kinase assay ([γ-33P]-ATP, RS peptide substrate), DYRK1B; format: biochemical; settings: for IC50: 15 µM ATP, read-out: IC50 DYRK 1B; for remaining activity at 10 µM: 10 µM compound, compared to controls, read-out: Residual Activity at 10 µM DYRK 1B
DYRK1B, sequence (Q9Y463 whole entry): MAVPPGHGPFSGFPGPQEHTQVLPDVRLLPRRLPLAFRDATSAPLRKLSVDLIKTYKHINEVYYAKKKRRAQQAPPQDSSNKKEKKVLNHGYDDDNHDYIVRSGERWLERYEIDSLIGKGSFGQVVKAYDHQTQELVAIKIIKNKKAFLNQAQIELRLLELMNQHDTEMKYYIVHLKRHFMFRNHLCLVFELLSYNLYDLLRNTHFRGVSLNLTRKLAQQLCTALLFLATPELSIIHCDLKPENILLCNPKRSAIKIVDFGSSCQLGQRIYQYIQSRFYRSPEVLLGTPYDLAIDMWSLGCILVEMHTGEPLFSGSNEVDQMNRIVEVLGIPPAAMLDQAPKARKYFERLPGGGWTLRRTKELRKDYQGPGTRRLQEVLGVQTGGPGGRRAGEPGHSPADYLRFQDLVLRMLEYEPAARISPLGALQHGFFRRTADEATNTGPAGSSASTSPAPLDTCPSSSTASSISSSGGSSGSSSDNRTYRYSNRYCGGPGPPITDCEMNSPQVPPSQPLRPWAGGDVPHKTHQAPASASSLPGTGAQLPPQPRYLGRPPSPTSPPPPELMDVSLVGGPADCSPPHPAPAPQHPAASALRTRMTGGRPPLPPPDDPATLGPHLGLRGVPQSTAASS
Protocol: as §1

DYRK3 = biological target: T2, DYRK3 (Homo sapiens, UniProt O43781); experiment: Protein kinase assay ([γ-33P]-ATP, RS peptide substrate), DYRK3; format: biochemical; settings: for inhibition at 10 µM / remaining activity at 10 µM: 10 µM compound; for inhibition at 10 µM: read-out: Inhibition at 10 µM DYRK3 (class symbol); for remaining activity at 10 µM: compared to controls, read-out: Residual Activity at 10 µM DYRK3; for IC50: 15 µM ATP
T2 sequence (O43781 1-588): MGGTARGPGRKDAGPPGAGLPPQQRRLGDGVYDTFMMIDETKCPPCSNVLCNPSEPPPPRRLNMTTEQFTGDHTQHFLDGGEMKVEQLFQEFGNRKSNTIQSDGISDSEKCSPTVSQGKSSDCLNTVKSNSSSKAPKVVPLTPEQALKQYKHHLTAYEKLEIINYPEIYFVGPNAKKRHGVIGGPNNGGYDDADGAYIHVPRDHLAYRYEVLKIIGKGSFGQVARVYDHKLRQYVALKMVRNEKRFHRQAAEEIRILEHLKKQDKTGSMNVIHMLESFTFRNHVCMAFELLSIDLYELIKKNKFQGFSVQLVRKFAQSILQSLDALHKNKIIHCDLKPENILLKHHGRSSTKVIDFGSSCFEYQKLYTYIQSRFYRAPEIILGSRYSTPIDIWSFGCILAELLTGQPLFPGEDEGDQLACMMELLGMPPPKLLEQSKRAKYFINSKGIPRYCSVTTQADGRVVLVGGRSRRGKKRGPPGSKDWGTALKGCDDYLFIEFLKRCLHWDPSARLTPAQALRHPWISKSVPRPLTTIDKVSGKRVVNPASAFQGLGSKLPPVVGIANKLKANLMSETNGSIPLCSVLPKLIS
Protocol: as §1

DYRK2 = biological target: T3, DYRK2 (Homo sapiens, UniProt Q92630); experiment: Protein kinase assay ([γ-33P]-ATP, RS peptide substrate), DYRK2; format: biochemical; settings: for inhibition at 10 µM / remaining activity at 10 µM: 10 µM compound; for inhibition at 10 µM: read-out: Inhibition at 10 µM DYRK2 (class symbol); for remaining activity at 10 µM: compared to controls, read-out: Residual Activity at 10 µM DYRK2; for IC50: 15 µM ATP
T3 sequence (Q92630 1-601): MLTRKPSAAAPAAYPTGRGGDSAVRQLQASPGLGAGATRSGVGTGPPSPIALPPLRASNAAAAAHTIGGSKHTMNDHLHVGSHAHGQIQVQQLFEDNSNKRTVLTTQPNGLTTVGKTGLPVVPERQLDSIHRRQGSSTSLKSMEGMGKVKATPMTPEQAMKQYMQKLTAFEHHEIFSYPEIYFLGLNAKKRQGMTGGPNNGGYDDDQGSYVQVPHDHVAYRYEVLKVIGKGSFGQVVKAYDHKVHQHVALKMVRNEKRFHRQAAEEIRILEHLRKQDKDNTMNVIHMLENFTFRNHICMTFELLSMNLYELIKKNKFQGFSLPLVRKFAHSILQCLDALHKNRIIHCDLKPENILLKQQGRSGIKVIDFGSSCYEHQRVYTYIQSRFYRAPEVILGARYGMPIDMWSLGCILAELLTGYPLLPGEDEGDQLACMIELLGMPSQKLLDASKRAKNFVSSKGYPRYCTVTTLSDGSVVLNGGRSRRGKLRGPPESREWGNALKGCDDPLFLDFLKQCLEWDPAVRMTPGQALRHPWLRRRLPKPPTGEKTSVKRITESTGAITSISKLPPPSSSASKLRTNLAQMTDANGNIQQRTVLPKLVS
Protocol: as §1

CLK3 = CLK3 (Mus musculus, UniProt O35492); experiment: Protein kinase assay ([γ-33P]-ATP, RS peptide substrate), CLK3; format: biochemical; settings: for inhibition at 10 µM / remaining activity at 10 µM: 10 µM compound; for inhibition at 10 µM: read-out: Inhibition at 10 µM CLK3 (class symbol); for remaining activity at 10 µM: compared to controls, read-out: Residual Activity at 10 µM CLK3; for IC50: 15 µM ATP
CLK3, sequence (O35492 whole entry): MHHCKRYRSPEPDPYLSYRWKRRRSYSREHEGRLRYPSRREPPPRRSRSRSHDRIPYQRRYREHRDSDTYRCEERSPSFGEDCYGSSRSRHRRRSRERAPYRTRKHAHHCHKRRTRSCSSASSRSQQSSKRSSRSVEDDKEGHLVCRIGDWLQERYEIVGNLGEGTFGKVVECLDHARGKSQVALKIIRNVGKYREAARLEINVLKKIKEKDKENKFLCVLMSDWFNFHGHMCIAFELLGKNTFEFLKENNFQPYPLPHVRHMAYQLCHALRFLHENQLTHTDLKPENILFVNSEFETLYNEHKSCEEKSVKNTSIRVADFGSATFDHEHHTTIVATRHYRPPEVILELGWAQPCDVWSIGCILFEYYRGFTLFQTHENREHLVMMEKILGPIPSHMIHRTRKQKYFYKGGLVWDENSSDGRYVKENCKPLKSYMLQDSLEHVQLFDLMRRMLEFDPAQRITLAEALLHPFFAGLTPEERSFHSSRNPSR
Protocol: as §1

CLK2 = CLK2 (Mus musculus, UniProt O35491); experiment: Protein kinase assay ([γ-33P]-ATP, RS peptide substrate), CLK2; format: biochemical; settings: for IC50: 15 µM ATP; for remaining activity at 10 µM: compared to controls, read-out: Residual Activity at 10 µM CLK2
CLK2, sequence (O35491 whole entry): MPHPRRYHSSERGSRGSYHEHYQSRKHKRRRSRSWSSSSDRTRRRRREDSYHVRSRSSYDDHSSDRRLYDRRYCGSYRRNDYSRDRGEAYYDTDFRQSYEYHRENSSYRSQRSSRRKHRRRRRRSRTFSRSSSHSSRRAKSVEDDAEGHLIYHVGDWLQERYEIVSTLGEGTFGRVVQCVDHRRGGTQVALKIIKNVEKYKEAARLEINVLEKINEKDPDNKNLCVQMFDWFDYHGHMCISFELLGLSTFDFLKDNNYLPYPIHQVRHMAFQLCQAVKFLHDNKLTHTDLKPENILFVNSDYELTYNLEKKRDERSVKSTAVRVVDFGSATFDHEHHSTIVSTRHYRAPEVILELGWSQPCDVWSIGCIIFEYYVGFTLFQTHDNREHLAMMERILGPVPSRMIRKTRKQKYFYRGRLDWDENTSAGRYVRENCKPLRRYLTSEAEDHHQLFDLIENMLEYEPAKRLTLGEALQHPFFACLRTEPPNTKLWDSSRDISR
Protocol: as §1

CLK1 = CLK1 (Mus musculus, UniProt P22518); experiment: Protein kinase assay ([γ-33P]-ATP, RS peptide substrate), CLK1; format: biochemical; settings: for IC50: 15 µM ATP; for remaining activity at 10 µM: 10 µM compound, compared to controls, read-out: Residual Activity at 10 µM CLK1
CLK1, sequence (P22518 whole entry): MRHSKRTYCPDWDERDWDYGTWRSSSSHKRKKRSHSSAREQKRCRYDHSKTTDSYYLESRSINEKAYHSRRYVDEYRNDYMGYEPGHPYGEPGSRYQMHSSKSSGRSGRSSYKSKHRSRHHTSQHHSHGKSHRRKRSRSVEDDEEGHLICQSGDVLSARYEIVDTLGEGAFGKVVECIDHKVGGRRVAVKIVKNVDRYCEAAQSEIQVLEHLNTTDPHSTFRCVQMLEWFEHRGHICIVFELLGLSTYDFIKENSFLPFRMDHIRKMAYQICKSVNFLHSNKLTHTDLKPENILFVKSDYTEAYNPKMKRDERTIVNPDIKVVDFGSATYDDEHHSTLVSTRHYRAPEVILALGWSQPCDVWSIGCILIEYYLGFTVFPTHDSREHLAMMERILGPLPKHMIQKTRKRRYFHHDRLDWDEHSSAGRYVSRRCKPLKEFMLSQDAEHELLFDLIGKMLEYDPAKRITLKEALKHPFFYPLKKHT
Protocol: as §1

[3] = Cytotoxicity, cell viability by tetrazolium dye assay (XTT assay); format: cell-based; settings: human, HeLa cells, 1 µM, read-out: Viability of treated HeLa cells relative to control cells
Protocol: To evaluate the applicability of the 2-substituted indole-3-carbonitrile compounds in cell culture experiments, we assessed toxicity of 6f, 6h, 6s and 13b on HeLa cells by viability assays (Table 4).
The inhibitors were added to the cultured cells from stock solutions in DMSO to the desired final concentration. For cytotoxicity assays, HeLa cells were grown in 96-well plates (20,000–30,000 cells per well) and incubated with the test compounds for 3 days before cell viability was evaluated with the help of a tetrazolium dye assay (XTT assay, AppliChem GmbH, Darmstadt, Germany).

Structure (SMILES)	IC50 (CLK2) [µM]	remaining activity at 10 µM (DYRK1A [1]) [%]	remaining activity at 10 µM (CLK1) [%]	IC50 (DYRK3) [µM]	IC50 (DYRK2) [µM]	IC50 (CLK3) [µM]	IC50 (DYRK1A [1]) [µM]	LLE (DYRK1A [2])	IC50 (CLK4) [µM]	IC50 (DYRK1B) [µM]	IC50 (CLK1) [µM]	further results
N#Cc1c(-c2ccccc2)[nH]c2ccccc12 [Compound 6d, 2-Phenyl-1H-indole-3-carbonitrile]	> 10	–	–	–	–	–	0.4	2.90	2	6	0.8	Inhibition at 10 µM GSK3 (class symbol) (GSK-3): - (-: less than 20% inhibition at 10 µM, IC50 was not determined); inhibition at 10 µM (DYRK3): < 20%; inhibition at 10 µM (DYRK2): < 20%; inhibition at 10 µM (CLK3): < 20%
N#Cc1c(-c2ccc(Cl)cc2)[nH]c2c(Cl)cccc12 [Compound 6i, 7-Chloro-2-(4-chlorophenyl)-1H-indole-3-carbonitrile]	–	60	68	–	–	–	–	–	–	–	–	Residual Activity at 10 µM GSK3 (GSK-3): 112%
COc1ccc(-c2[nH]c3c(Cl)cccc3c2C#N)cc1 [Compound 6j, 7-Chloro-2-(4-methoxyphenyl)-1H-indole-3-carbonitrile]	–	60	47	–	–	–	–	–	–	–	–	Residual Activity at 10 µM GSK3 (GSK-3): 118%
CC(C)c1[nH]c2c(I)cccc2c1C#N [Compound 6q, 7-Iodo-2-isopropyl-1H-indole-3-carbonitrile]	0.7	–	–	> 10	> 10	> 10	0.28	2.61	0.1	0.53	0.1	IC50 (GSK-3): 1.3 µM
Cn1cc(C#N)c2cccc(Br)c21 [Compound 13d, 7-Bromo-1-methyl-1H-indole-3-carbonitrile]	> 10	–	–	> 10	> 10	> 10	1.9	2.80	> 10	> 10	3.33	IC50 (GSK-3): > 10 µM
Cn1c(-c2ccccc2)c(C#N)c2cccc(Br)c21 [Compound 13e, 7-Bromo-1-methyl-2-phenyl-1H-indole-3-carbonitrile]	–	–	–	–	–	–	2.3	1.15	1	10	> 10	Inhibition at 10 µM GSK3 (class symbol) (GSK-3): - (-: less than 20% inhibition at 10 µM, IC50 was not determined); inhibition at 10 µM (DYRK3): < 20%; inhibition at 10 µM (DYRK2): < 20%; inhibition at 10 µM (CLK3): < 20%; inhibition at 10 µM (CLK2; 10 µM compound, read-out: Inhibition at 10 µM CLK2 (class symbol)): < 20%
CN[C@@H]1C[C@H]2O[C@@](C)([C@@H]1OC)n1c3ccccc3c3c4c(c5c6ccccc6n2c5c31)C(=O)NC4 [Staurosporine, reference compound]	–	–	–	–	–	–	–	–	–	–	–	viability at 3 days, 1 µM [3]: 20%

Continued, in another order:

IC50 (CLK2) [µM]	remaining activity at 10 µM (DYRK1A [1]) [%]	remaining activity at 10 µM (CLK1) [%]	IC50 (DYRK3) [µM]	IC50 (DYRK2) [µM]	IC50 (CLK3) [µM]	Structure (SMILES)	IC50 (DYRK1A [1]) [µM]	LLE (DYRK1A [2])	IC50 (CLK4) [µM]	IC50 (DYRK1B) [µM]	IC50 (CLK1) [µM]	further results
–	35	56	–	–	–	Cc1cccc2c(C#N)c(-c3ccccc3)[nH]c12 [Compound 6e, 7-Methyl-2-phenyl-1H-indole-3-carbonitrile]	–	–	–	–	–	remaining activity at 10 µM (CLK4): 43%; remaining activity at 10 µM (DYRK1B): 74%; remaining activity at 10 µM (DYRK3): 105%; remaining activity at 10 µM (DYRK2): 75%; remaining activity at 10 µM (CLK3): 124%; remaining activity at 10 µM (CLK2; 10 µM compound): 75%
1.3	–	–	> 10	> 10	> 10	C=CCc1[nH]c2c(Cl)cccc2c1C#N [Compound 6k, 2-Allyl-7-chloro-1H-indole-3-carbonitrile]	0.69	2.77	0.533	1.3	0.533	–
> 10	–	–	> 10	> 10	> 10	N#Cc1c(CCC2OCCCO2)[nH]c2c(Cl)cccc12 [Compound 6l, 2-(2-(1,3-Dioxan-2-yl)ethyl)-7-chloro-1H-indole-3-carbonitrile]	3.9	2.57	4	> 10	4.9	–
–	42	55	–	–	–	N#Cc1c(-c2ccc(Cl)cc2)[nH]c2c(I)cccc12 [Compound 6m, 7-Iodo-2-(4-chlorophenyl)-1H-indole-3-carbonitrile]	–	–	–	–	–	remaining activity at 10 µM (CLK4): 36%; remaining activity at 10 µM (DYRK1B): 79%; remaining activity at 10 µM (DYRK3): 101%; remaining activity at 10 µM (DYRK2): 116%; remaining activity at 10 µM (CLK3): 130%; remaining activity at 10 µM (CLK2; 10 µM compound): 92%
> 10	–	–	> 10	> 10	> 10	COc1ccc(-c2[nH]c3c(I)cccc3c2C#N)cc1 [Compound 6n, 7-Iodo-2-(4-methoxyphenyl)-1H-indole-3-carbonitrile]	0.233	2.36	0.22	> 10	0.333	–
3.3	–	–	> 10	> 10	> 10	COc1cccc(-c2[nH]c3c(I)cccc3c2C#N)c1 [Compound 6o, 7-Iodo-2-(3-methoxyphenyl)-1H-indole-3-carbonitrile]	0.21	2.41	0.29	0.633	0.633	–
–	97	102	–	–	–	N#Cc1cn(Cc2ccccc2)c2c(Cl)cccc12 [Compound 13a, 1-Benzyl-7-chloro-1H-indole-3-carbonitrile]	–	–	–	–	–	remaining activity at 10 µM (CLK4): 84%; remaining activity at 10 µM (DYRK1B): 78%; remaining activity at 10 µM (DYRK3): 95%; remaining activity at 10 µM (DYRK2): 144%; remaining activity at 10 µM (CLK3): 127%; remaining activity at 10 µM (CLK2; 10 µM compound): 95%
–	32	56	–	–	–	Cn1cc(C#N)c2cccc(Cl)c21 [Compound 13c, 7-Chloro-1-methyl-1H-indole-3-carbonitrile]	–	–	–	–	–	remaining activity at 10 µM (CLK4): 30%; remaining activity at 10 µM (DYRK1B): 47%; remaining activity at 10 µM (DYRK3): 95%; remaining activity at 10 µM (DYRK2): 117%; remaining activity at 10 µM (CLK3): 97%; remaining activity at 10 µM (CLK2; 10 µM compound): 70%
